Test [1] has as its target T1, KRASwt (Homo sapiens, UniProt P01116).
T1 construct: made in house; host or cells: E. coli BL21 (DE3)
The test can be described thus: Bio-Biochem-PPI-HTRF Ras-SOS1 interaction assay (KRAS wt). The settings on record: 5 nM. Format: biochemical. A digest of the protocol:
(§1)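 GST-tagged K-Ras (wt or G12D) with anti-GST-Eu(K) donor was mixed with His-hSOS1 and anti-6His-XL665 acceptor in HEPES pH 7.4/NaCl/DTT/BSA/Igepal buffer, with compound in duplicate from 10 μM down to 0.01 μM. After about 10 min or longer, HTRF 665/620 nm ratio gave IC50.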

For test [2], the target named is T2, KRASG12D (Homo sapiens, UniProt P01116, G12D).
T2 construct: made in house; host or cells: E. coli BL21 (DE3)
T2 sequence (P01116 1-188 isoform P01116-2 G12D): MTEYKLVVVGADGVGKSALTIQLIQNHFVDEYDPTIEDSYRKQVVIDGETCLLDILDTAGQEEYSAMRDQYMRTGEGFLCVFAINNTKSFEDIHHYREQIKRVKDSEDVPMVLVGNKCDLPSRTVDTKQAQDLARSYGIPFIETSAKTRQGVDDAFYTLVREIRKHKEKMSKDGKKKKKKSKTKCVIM
The experiment in a line: Bio-Biochem-PPI-HTRF Ras-SOS1 interaction assay (KRAS G12D). It is filed as biochemical. To be noted: 5 nM. A digest of the protocol: as §1

T1 sequence (P01116 1-188 isoform P01116-2): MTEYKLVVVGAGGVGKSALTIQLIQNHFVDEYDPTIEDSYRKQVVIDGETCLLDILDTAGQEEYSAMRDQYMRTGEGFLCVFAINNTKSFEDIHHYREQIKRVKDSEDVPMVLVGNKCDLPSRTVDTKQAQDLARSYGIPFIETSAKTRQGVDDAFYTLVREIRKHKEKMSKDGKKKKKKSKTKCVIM

In the case of `COc1nc(N2CCCCC3(CN(C(C)=O)C3)C2)c2cc(Cl)c(-c3ccc(F)c4sc(N)c(C#N)c34)c(F)c2n1` [compound 256, 4-(4-(2-acetyl-2,6-diazaspiro[3.6]decan-6-yl)-6-chloro-8-fluoro-2-methoxyquinazolin-7-yl)-2-amino-7-fluorobenzo[b]thiophene-3-carbonitrile], the half-maximal inhibitory concentration (IC50) in test [1] and in test [2] was below 5 µM each time.
For `N#Cc1c(N)sc2c(F)ccc(-c3c(Cl)cc4c(N5CCOC6(CN(C(=O)N7CC(C#N)C7)C6)C5)nc(OC[C@@]56CCCN5C[C@H](F)C6)nc4c3F)c12` [compound 257, 1-(8-(7-(2-amino-3-cyano-7-fluorobenzo[b]thiophen-4-yl)-6-chloro-8-fluoro-2-(((2R,7aS)-2-fluorotetrahydro-1H-pyrrolizin-7a(5H)-yl)methoxy)quinazolin-4-yl)-5-oxa-2,8-diazaspiro[3.5]nonane-2-carbonyl)azetidine-3-carbonitrile], the IC50 in test [1] and in test [2] was below 5 µM in each case.
As for `COc1cc(C(=O)N2CC3(CCCCN(c4nc(OC[C@@]56CCCN5C[C@H](F)C6)nc5c(F)c(-c6ccc(F)c7sc(N)c(C#N)c67)c(Cl)cc45)C3)C2)n(C)n1` [compound 258, 2-amino-4-(6-chloro-8-fluoro-2-(((2R,7aS)-2-fluorotetrahydro-1H-pyrrolizin-7a(5H)-yl)methoxy)-4-(2-(3-methoxy-1-methyl-1H-pyrazole-5-carbonyl)-2,6-diazaspiro[3.6]decan-6-yl)quinazolin-7-yl)-7-fluorobenzo[b]thiophene-3-carbonitrile], the IC50 in test [1] and in test [2] was below 5 µM each time.
On to `N#Cc1c(N)sc2c(F)ccc(-c3c(Cl)cc4c(N5CCCCC6(CN(C(=O)C[C@@H]7CCOC7)C6)C5)nc(OC[C@@]56CCCN5C[C@H](F)C6)nc4c3F)c12` [compound 259, 2-amino-4-(6-chloro-8-fluoro-2-(((2R,7aS)-2-fluorotetrahydro-1H-pyrrolizin-7a(5H)-yl)methoxy)-4-(2-(2-((S)-tetrahydrofuran-3-yl)acetyl)-2,6-diazaspiro[3.6]decan-6-yl)quinazolin-7-yl)-7-fluorobenzo[b]thiophene-3-carbonitrile], for which the half-maximal inhibitory concentration (IC50) in test [1] and in test [2] was below 5 µM in each case.
Consider `C#Cc1c(F)ccc2cc(O)cc(-c3ccc4c(N5CCCCC6(CN(C(=O)[C@@H]7CC7(F)F)C6)C5)nc(OC[C@@]56CCCN5C[C@H](F)C6)nc4c3F)c12` [compound 260, ((S)-2,2-difluorocyclopropyl) (6-(7-(8-ethynyl-7-fluoro-3-hydroxynaphthalen-1-yl)-8-fluoro-2-(((2R,7aS)-2-fluorotetrahydro-1H-pyrrolizin-7a(5H)-yl)methoxy)quinazolin-4-yl)-2,6-diazaspiro[3.6]decan-2-yl)methanone], for which the half-inhibitory concentration (IC50) in test [1] and in test [2] was below 5 µM each time.
With `N#Cc1c(N)sc2c(F)ccc(-c3c(Cl)cc4c(N5CCCCC6(CN(C(=O)C7CC7C7CC7)C6)C5)nc(OC[C@@]56CCCN5C[C@H](F)C6)nc4c3F)c12` (stereo partly drawn) [compound 261, 4-(4-(2-([1,1′-bi (cyclopropane)]-2-carbonyl)-2,6-diazaspiro[3.6]decan-6-yl)-6-chloro-8-fluoro-2-(((2R,7aS)-2-fluorotetrahydro-1H-pyrrolizin-7a(5H)-yl)methoxy)quinazolin-7-yl)-2-amino-7-fluorobenzo[b] thiophene-3-carbonitrile], the concentration for half-maximal inhibition (IC50) in test [1] and in test [2] was below 5 µM throughout.
Regarding `N#Cc1c(N)sc2c(F)ccc(-c3c(Cl)cc4c(N5CCCCC6(CN(C(=O)[C@@H]7C[C@H]7C#N)C6)C5)nc(OC[C@@]56CCCN5C[C@H](F)C6)nc4c3F)c12` [compound 263, 2-amino-4-(6-chloro-4-(2-((1R,2R)-2-cyanocyclopropane-1-carbonyl)-2,6-diazaspiro[3.6]decan-6-yl)-8-fluoro-2-(((2R,7aS)-2-fluorotetrahydro-1H-pyrrolizin-7a(5H)-yl)methoxy)quinazolin-7-yl)-7-fluorobenzo[b]thiophene-3-carbonitrile], the 50% inhibitory concentration (IC50) in test [1] and in test [2] was below 5 µM throughout.
For `N#Cc1c(N)sc2c(F)ccc(-c3c(Cl)cc4c(N5CCOC6(CN(C(=O)c7ccnn7C(F)(F)F)C6)C5)nc(OC[C@@]56CCCN5C[C@H](F)C6)nc4c3F)c12` [compound 265, 2-amino-4-(6-chloro-8-fluoro-2-(((2R,7aS)-2-fluorotetrahydro-1H-pyrrolizin-7a(5H)-yl)methoxy)-4-(2-(1-(trifluoromethyl)-1H-pyrazole-5-carbonyl)-5-oxa-2,8-diazaspiro[3.5]nonan-8-yl)quinazolin-7-yl)-7-fluorobenzo[b]thiophene-3-carbonitrile], the IC50 in test [1] and in test [2] was below 5 µM throughout.
For `CC(C)(C(=O)N1CC2(CCCCN(c3nc(OC[C@@]45CCCN4C[C@H](F)C5)nc4c(F)c(-c5ccc(F)c6sc(N)c(C#N)c56)c(Cl)cc34)C2)C1)N1CCOCC1` [compound 266, 2-amino-4-(6-chloro-8-fluoro-2-(((2R,7aS)-2-fluorotetrahydro-1H-pyrrolizin-7a(5H)-yl)methoxy)-4-(2-(2-methyl-2-morpholinopropanoyl)-2,6-diazaspiro[3.6]decan-6-yl)quinazolin-7-yl)-7-fluorobenzo[b]thiophene-3-carbonitrile], the concentration for half-maximal inhibition (IC50) in test [1] and in test [2] was below 5 µM each time.
In the case of `N#Cc1c(N)sc2c(F)ccc(-c3c(Cl)cc4c(N5CCCCC6(CN(C(=O)C7CC78CCOC8)C6)C5)nc(OC[C@@]56CCCN5C[C@H](F)C6)nc4c3F)c12` (stereo partly drawn) [compound 267, 4-(4-(2-(5-oxaspiro[2.4]heptane-1-carbonyl)-2,6-diazaspiro[3.6]decan-6-yl)-6-chloro-8-fluoro-2-(((2R,7aS)-2-fluorotetrahydro-1H-pyrrolizin-7a(5H)-yl)methoxy)quinazolin-7-yl)-2-amino-7-fluorobenzo[b] thiophene-3-carbonitrile], the IC50 in test [1] and in test [2] was below 5 µM in each case.
On to `N#Cc1c(N)sc2c(F)ccc(-c3c(Cl)cc4c(N5CCCCC6(CN(C(=O)COC(F)(F)F)C6)C5)nc(OC[C@@]56CCCN5C[C@H](F)C6)nc4c3F)c12` [compound 268, 2-amino-4-(6-chloro-8-fluoro-2-(((2R,7aS)-2-fluorotetrahydro-1H-pyrrolizin-7a(5H)-yl)methoxy)-4-(2-(2-(trifluoromethoxy)acetyl)-2,6-diazaspiro[3.6]decan-6-yl)quinazolin-7-yl)-7-fluorobenzo[b]thiophene-3-carbonitrile], for which the IC50 in test [1] and in test [2] was below 5 µM in each case.
As for `N#Cc1c(N)sc2c(F)ccc(-c3c(Cl)cc4c(N5CC(F)CCC6(CN(C(=O)[C@@H]7CC7(F)F)C6)C5)nc(OC[C@@]56CCCN5C[C@H](F)C6)nc4c3F)c12` (stereo partly drawn) [compound 269, 2-amino-4-(6-chloro-4-(2-((S)-2,2-difluorocyclopropane-1-carbonyl)-8-fluoro-2,6-diazaspiro[3.6]decan-6-yl)-8-fluoro-2-(((2R,7aS)-2-fluorotetrahydro-1H-pyrrolizin-7a(5H)-yl)methoxy)quinazolin-7-yl)-7-fluorobenzo[b]thiophene-3-carbonitrile], the half-maximal inhibitory concentration (IC50) in test [1] and in test [2] was below 5 µM in each case.
For the molecule `N#Cc1c(N)sc2c(F)ccc(-c3c(Cl)cc4c(N5CCCCC6(CN(C(=O)C7C8CCOC87)C6)C5)nc(OC[C@@]56CCCN5C[C@H](F)C6)nc4c3F)c12` (stereo partly drawn) [compound 270, 4-(4-(2-(2-oxabicyclo[3.1.0]hexane-6-carbonyl)-2,6-diazaspiro [3.6]decan-6-yl)-6-chloro-8-fluoro-2-(((2R,7aS)-2-fluorotetrahydro-1H-pyrrolizin-7a(5H)-yl)methoxy)quinazolin-7-yl)-2-amino-7-fluorobenzo[b]thiophene-3-carbonitrile], the half-maximal inhibitory concentration (IC50) in test [1] and in test [2] was below 5 µM in each case.
For `N#Cc1c(N)sc2c(F)ccc(-c3c(Cl)cc4c(N5CCCCC6(CN(C=O)C6)C5)nc(OC[C@@]56CCCN5C[C@H](F)C6)nc4c3F)c12` [compound 271, 2-amino-4-(6-chloro-8-fluoro-2-(((2R,7aS)-2-fluorotetrahydro-1H-pyrrolizin-7a(5H)-yl)methoxy)-4-(2-formyl-2,6-diazaspiro[3.6]decan-6-yl)quinazolin-7-yl)-7-fluorobenzo[b]thiophene-3-carbonitrile], the IC50 in test [1] and in test [2] was below 5 µM throughout.
Regarding `N#Cc1c(N)sc2c(F)ccc(-c3c(Cl)cc4c(N5CCCCC6(CN(C(=O)N7CCC7)C6)C5)nc(OC[C@@]56CCCN5C[C@H](F)C6)nc4c3F)c12` [compound 272, 2-amino-4-(4-(2-(azetidine-1-carbonyl)-2,6-diazaspiro[3.6]decan-6-yl)-6-chloro-8-fluoro-2-(((2R,7aS)-2-fluorotetrahydro-1H-pyrrolizin-7a(5H)-yl)methoxy)quinazolin-7-yl)-7-fluorobenzo[b]thiophene-3-carbonitrile], the IC50 in test [1] and in test [2] was below 5 µM throughout.
`N#Cc1c(N)sc2c(F)ccc(-c3c(Cl)cc4c(N5CCCCC6(CN(C(=O)CC7COC7)C6)C5)nc(OC[C@@]56CCCN5C[C@H](F)C6)nc4c3F)c12` [compound 273, 2-amino-4-(6-chloro-8-fluoro-2-(((2R,7aS)-2-fluorotetrahydro-1H-pyrrolizin-7a(5H)-yl)methoxy)-4-(2-(2-(oxetan-3-yl)acetyl)-2,6-diazaspiro[3.6]decan-6-yl)quinazolin-7-yl)-7-fluorobenzo[b]thiophene-3-carbonitrile]: the half-inhibitory concentration (IC50) in test [1] and in test [2] was below 5 µM in each case.

Values taken from patent US20240109918A1, “HETEROCYCLIC COMPOUNDS AND USES THEREOF” (Kumquat Biosciences Inc., priority 2022, published 2024).
